For this assay, the target named is T1, CDK2 (Homo sapiens, UniProt P24941).
T1 construct: endogenous in cells; host or cells: OVCAR3 cells
In words: Phospho-RB measurement in OVCAR3 cells (HTRF phospho-RB cellular kit). To be noted: inhibition of RB phosphorylation at S807/811 (HTRF, TR-FRET ratio 665/620), 24 h compound treatment, 0.3 to 10,000 nM. Format: cell-based. The procedure: Biological Example 1: Phospho-RB Measurement in OVCAR3 Cells
The ability of compounds of Formula (I) to inhibit CDK2 was determined in OVCAR3 cells by measuring inhibition of phosphorylation of RB protein at S780 and S807/811. Phosphorylation of RB protein at S807/811 were measured using HTRF phospho-RB cellular kits (Cat #64RBS807PEG) from Cisbio.
On Day 1, OVCAR3 cells were seeded into 96-well tissue-culture treated plates at 20,000 cells/well in 200 μL and incubated overnight at 37° C. in CO2 atmosphere. On Day 2, the cells were treated with test compounds at concentrations from 0.3 to 10,000 nM using HP D300 digital dispenser. Twenty-four hours after compound treatment, cell culture media was removed by flicking the plate and tapping the plate against clean paper towel. Immediately 30 μL 1× lysis buffer was supplemented from the kit and the plate was incubated at room temperature on shaker for 30 min. After homogenization by pipetting up and down, 8 μL cell lysate from 96-well cell culture plate was transferred to 384-well small volume white detection plate. 2 μL premixed detection solution was added and the plate was covered with sealer. To prepare the detection solution, d2 conjugated-phospho-RB antibody and Eu-cryptate conjugated phosphor-RB antibody were diluted into detection buffer following manufacturer's instruction.
Detection plates were incubated for 4 h at room temperature and read on ClarioStar (BMG Labtech) in TR-FRET mode ([…]). The TR-FRET ratio (665 nM/620 nM) was plotted against the compound concentration and normalized to DMSO controls. Half maximal inhibition concentration (IC50) values are calculated with a four-parameter logistic fit using GraphPad Prism (version 8; La Jolla, CA).
(In general: Time-resolved FRET reads energy transfer from a long-lived donor to a nearby acceptor.)
As for `CN1CC(N(C)S(=O)(=O)N2CCC(Nc3nccc(-c4sc(C(C)(C)C)nc4-c4cccc(NS(=O)(=O)N5Cc6ccccc6C5)c4F)n3)CC2)C1` [Example 179, N-(3-(2-(tert-butyl)-5-(2-((1-(N-methyl-N-(1-methylazetidin-3-yl)sulfamoyl)-piperidin-4-yl)amino)pyrimidin-4-yl)-thiazol-4-yl)-2-fluorophenyl)-isoindoline-2-sulfonamide], the IC50 amounted to 241 nM. Next, `CNS(=O)(=O)Nc1cccc(-c2nc(C(C)(C)C)sc2-c2ccnc(NC3CCN(S(=O)(=O)N4CCNCC4)CC3)n2)c1F` [Example 146, N-(3-(2-(tert-butyl)-5-(2-((1-(piperazin-1-ylsulfonyl)piperidin-4-yl)amino)-pyrimidin-4-yl)thiazol-4-yl)-2-fluoro-phenyl)-methylamine-sulfonamide]: 3010 nM; `CN1CCN(S(=O)(=O)Nc2cccc(-c3nc(C(C)(C)C)sc3-c3ccnc(NC4CCN(S(C)(=O)=O)CC4)n3)c2F)c2ccccc21` [Example 99, N-(3-(2-(tert-butyl)-5-(2-((1-(methylsulfonyl)piperidin-4-yl)amino)-pyrimidin-4-yl)thiazol-4-yl)-2-fluoro-phenyl)-4-methyl-3,4-dihydro-quinoxaline-1(2H)-sulfonamide]: 202 nM.

As to `O=S1(=O)CC2(CC(Nc3nccc(-c4sc(C56CC(C5)C6)nc4-c4cccc(NS(=O)(=O)N5CCc6cc(F)c(F)cc65)c4F)n3)C2)C1` [Example 34, N-(3-(2-(bicyclo [1.1.1]pentan-1-yl)-5-(2-((2,2-dioxido-2-thiaspiro[3.3]heptan-6-yl)amino)-pyrimidin-4-yl)thiazol-4-yl)-2-fluorophenyl)-5,6-difluoroindoline-1-sulfonamide], the half-inhibitory concentration (IC50) stood at 116 nM. As to `O=S1(=O)CC2(CC(Nc3nccc(-c4sc(C56CC(C5)C6)nc4-c4cccc(NS(=O)(=O)N5C6CCC5CC6)c4F)n3)C2)C1` [Example 265, N-(3-(2-(bicyclo[1.1. 1]pentan-1-yl)-5-(2-((2,2-dioxido-2-thiaspiro[3.3]heptan-6-yl)amino)-pyrimidin-4-yl)thiazol-4-yl)-2-fluorophenyl)-7-azabicyclo[2.2.1]-heptane-7-sulfonamide], the half-inhibitory concentration (IC50) stood at 5270 nM. Turning to `CN1CC2CCC(C1)N2c1nc(-c2cccc(NS(=O)(=O)N3CCc4ccc(C#N)cc43)c2F)c(-c2ccnc(NC3CC4(C3)CS(=O)(=O)C4)n2)s1` [Example 16, 6-cyano-N-(3-(5-(2-((2,2-dioxido-2-thiaspiro[3.3]heptan-6-yl)amino)-pyrimidin-4-yl)-2-(3-methyl-3,8-diazabicyclo[3.2.1]octan-8-yl)thiazol-4-yl)-2-fluorophenyl) indoline-1-sulfonamide], the IC50 came to 62.4 nM. Consider `CC1CCCN(S(=O)(=O)Nc2cccc(-c3nc(C(C)(C)C)sc3-c3ccnc(NC4CCN(S(C)(=O)=O)CC4)n3)c2F)C1` (stereo not shown) [Example 62, N-(3-(2-(tert-butyl)-5-(2-((1-(methylsulfonyl)-piperidin-4-yl)amino)-pyrimidin-4-yl)thiazol-4-yl)-2-fluoro-phenyl)-3-methylpiperidine-1-sulfonamide], for which the IC50 is 3170 nM. Take `O=S1(=O)CC2(CC(Nc3nccc(-c4sc(C56CC(C5)C6)nc4-c4cccc(NS(=O)(=O)N5CCc6ccc(F)cc65)c4F)n3)C2)C1` [Example 29, N-(3-(2-(bicyclo [1.1.1]pentan-1-yl)-5-(2-((2,2-dioxido-2-thiaspiro[3.3]heptan-6-yl)amino)-pyrimidin-4-yl)thiazol-4-yl)-2-fluorophenyl)-6-fluoroindoline-1-sulfonamide]: the IC50 came out at 70.8 nM. Consider `COc1cc2c(cc1OC)CN(S(=O)(=O)Nc1cccc(-c3nc(C(C)(C)C)sc3-c3ccnc(NC4CCN(S(C)(=O)=O)CC4)n3)c1F)C2` [Example 87, N-(3-(2-(tert-butyl)-5-(2-((1-(methylsulfonyl)-piperidin-4-yl)amino)-pyrimidin-4-yl)thiazol-4-yl)-2-fluorophenyl)-5,6-dimethoxy-isoindoline-2-sulfonamide], for which the IC50 was determined as 325 nM.

For the molecule `CC(C)(C)c1nc(-c2cccc(NS(=O)(=O)N3CCc4ncccc43)c2F)c(-c2ccnc(NC3CC4(C3)CS(=O)(=O)C4)n2)s1` [Example 190, N-(3-(2-(tert-butyl)-5-(2-((2,2-dioxido-2-thiaspiro[3.3]heptan-6-yl)amino)-pyrimidin-4-yl)thiazol-4-yl)-2-fluoro-phenyl)-2,3-dihydro-1H-pyrrolo[3,2-b]-pyridine-1-sulfonamide], the IC50 worked out at 259 nM. Turning to `CC(C)(C)c1nc(-c2cccc(NS(=O)(=O)N3Cc4ccc(CO)cc4C3)c2F)c(-c2ccnc(NC3CC4(C3)CS(=O)(=O)C4)n2)s1` [Example 231, N-(3-(2-(tert-butyl)-5-(2-((2,2-dioxido-2-thiaspiro[3.3]heptan-6-yl)amino)-pyrimidin-4-yl)thiazol-4-yl)-2-fluorophenyl)-5-(hydroxymethyl)-isoindoline-2-sulfonamide], the IC50 came out at 77.4 nM. In the case of `CC(C)(C)c1nc(-c2cccc(NS(=O)(=O)N3CCOc4ccccc4C3)c2F)c(-c2ccnc(NC3CCN(S(=O)(=O)N4CCNCC4)CC3)n2)s1` [Example 115, N-(3-(2-(tert-butyl)-5-(2-((1-(piperazin-1-ylsulfonyl)piperidin-4-yl)amino)-pyrimidin-4-yl)thiazol-4-yl)-2-fluorophenyl)-2,3-dihydrobenzo [f][1,4]-oxazepine-4(5H)-sulfonamide], the concentration for half-maximal inhibition (IC50) stood at 636 nM.

As to `CC(C)(C)c1nc(-c2cccc(NS(=O)(=O)N3CCc4ccc(C#N)cc43)c2F)c(-c2ccnc(Nc3ccc(N4CCN(C5COC5)CC4)cc3)n2)s1` [Example 250, N-(3-(2-(tert-butyl)-5-(2-((4-(4-(oxetan-3-yl)-piperazin-1-yl)phenyl)amino)-pyrimidin-4-yl)thiazol-4-yl)-2-fluoro-phenyl)-6-cyanoindoline-1-sulfonamide], the half-maximal inhibitory concentration (IC50) was determined as 576 nM.

Consider `CN1CC2CCC(C1)N2c1nc(-c2cccc(NS(=O)(=O)N3Cc4cccc(C(F)(F)F)c4C3)c2F)c(-c2ccnc(NC3CC4(C3)CS(=O)(=O)C4)n2)s1` [Example 32, N-(3-(5-(2-((2,2-dioxido-2-thiaspiro-[3.3]-heptan-6-yl)amino)pyrimidin-4-yl)-2-(3-methyl-3,8-diazabicyclo[3.2.1]-octan-8-yl)-thiazol-4-yl)-2-fluoro-phenyl)-4-(trifluoro-methyl)isoindoline-2-sulfonamide], for which the IC50 was 23.1 nM. Next, `O=S1(=O)CC2(CC(Nc3nccc(-c4sc(C56CC(C5)C6)nc4-c4cccc(NS(=O)(=O)N5CCc6cc(C(F)(F)F)ccc65)c4F)n3)C2)C1` [Example 35, N-(3-(2-(bicyclo [1.1.1]pentan-1-yl)-5-(2-((2,2-dioxido-2-thiaspiro[3.3]heptan-6-yl)amino)-pyrimidin-4-yl)thiazol-4-yl)-2-fluorophenyl)-5-(trifluoromethyl)-indoline-1-sulfonamide]: 1590 nM. As for `CN1CCN(S(=O)(=O)N2CCC(Nc3nccc(-c4sc(C(C)(C)C)nc4-c4cccc(NS(=O)(=O)N5Cc6ccncc6C5)c4F)n3)CC2)CC1` [Example 128, N-(3-(2-(tert-butyl)-5-(2-((1-((4-methylpiperazin-1-yl)sulfonyl)piperidin-4.yl)-amino)pyrimidin~4-yl)thiazol-4-yl)-2-fluorophenyl)-1,3-dihydro-2H-pyrrolo[3,4-c]-pyridine-2-sulfonamide], the IC50 was found to be 162 nM.

What is called IC50 is the point on the concentration scale where inhibition reaches its midpoint.

The values are drawn from patent US20260274833A1 (NiKang Therapeutics, Inc., priority 2022, published 2026).
